In patent publication US8519128B2, “Pyripyropene derivatives having an ACAT2-inhibiting activity” (The Kitasato Institute, priority 2007, dated 2013):
Like-named read-outs stand apart in the source and are kept apart here.

What was measured:
[1] = system: apolipoprotein E-deficient mice; experiment: Total plasma cholesterol after 14 days of daily oral administration, high-fat feed; format: in vivo; conditions: for total plasma cholesterol at day 14 (% of day 0): day 0 taken as 100%, control 212.2%; for suppression of the increase in total plasma cholesterol compared with pyripyropene A: oral administration, apolipoprotein E-deficient mice
Experimental: Ten-week old apolipoprotein E-deficient mice (males, purchased from Jackson Laboratories) were kept under cycles of artificial light (day) for 12 hours and dark (night) for 12 hours by appropriately feeding a standard high-fat feed (D12079B, Research Diet). Before starting a test for each test compound, 100 μL of blood were collected from the caudal vein of each animal to measure the total cholesterol concentration in plasma using a commercially available kit (Determiner TC 555, Kyowa Medex). […] The test compound was orally administered daily at the start of the artificial light cycle of each day.
Blood was collected at the start of the artificial light cycle on day 14 of administration of the test compound to measure the total plasma cholesterol. The total plasma cholesterol before administration of the test compound (on day 0) was taken as 100%, and the percent increase in total plasma cholesterol on day 14 after administration of the test compound started was calculated.

ACAT 2 = biological target: T1, ACAT 2 (Mus musculus, UniProt O88908); experiment: ACAT-inhibiting activity, mouse liver microsome membrane fraction, [14C]oleoyl-CoA; format: biochemical; conditions: for Specific activity: (inhibitory activity of test compound)/(inhibitory activity of pyripyropene A): relative to pyripyropene A
T1 construct: The source of ACAT 2 enzyme used was a membrane fraction derived from mouse liver microsome; from tissue; host or cells: mouse liver (microsome fraction)
T1 sequence (O88908 1-525): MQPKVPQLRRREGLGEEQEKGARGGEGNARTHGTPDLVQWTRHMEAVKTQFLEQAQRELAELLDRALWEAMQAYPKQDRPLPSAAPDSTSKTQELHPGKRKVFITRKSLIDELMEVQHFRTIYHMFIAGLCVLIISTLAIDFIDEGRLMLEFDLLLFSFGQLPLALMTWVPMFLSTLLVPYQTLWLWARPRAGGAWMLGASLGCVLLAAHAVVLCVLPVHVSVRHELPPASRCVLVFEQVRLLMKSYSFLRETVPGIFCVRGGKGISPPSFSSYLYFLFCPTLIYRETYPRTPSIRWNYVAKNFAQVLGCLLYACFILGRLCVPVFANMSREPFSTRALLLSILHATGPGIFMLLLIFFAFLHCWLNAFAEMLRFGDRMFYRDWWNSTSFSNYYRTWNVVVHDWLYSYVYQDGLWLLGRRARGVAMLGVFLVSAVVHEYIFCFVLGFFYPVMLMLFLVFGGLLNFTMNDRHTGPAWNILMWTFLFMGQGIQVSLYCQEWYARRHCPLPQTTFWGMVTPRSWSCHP
Method in brief: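 Enzyme source: mouse liver microsomal membrane fraction (100000×g pellet) at 5 mg/ml protein in 50 mM Tris-HCl pH 7.8, 1 mM EDTA, 1 mM PMSF; substrate [14C]oleoyl-CoA. Chloroform-extracted lipids resolved by silica TLC in hexane/diethyl ether/acetic acid (70:30:1).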

[2] = mouse liver microsome, 5 minutes at 37° C.

Row | SMILES | IC50 (ACAT 2; [2]) [µM] | Specific activity: (inhibitory activity of test compound)/(inhibitory activity of pyripyropene A) (ACAT 2) | total plasma cholesterol at day 14 (% of day 0) ([1]; 1 mg/kg oral daily) [%] | total plasma cholesterol at day 14 (% of day 0) ([1]; 10 mg/kg oral daily) [%] | total plasma cholesterol at day 14 (% of day 0) ([1]; 50 mg/kg oral daily) [%] | suppression of the increase in total plasma cholesterol compared with pyripyropene A [1] | IC50 (ACAT 2) [µM]
1 | CC(=O)OCC1(C)C2C[C@H](OC(=O)c3ccc(C#N)cc3)[C@@]3(C)Oc4cc(-c5cccnc5)oc(=O)c4[C@H](O)C3[C@@]2(C)CC[C@@H]1OC(C)=O (some centres unmarked) [PRD 017, 7-p-cyanobenzoyl-7-deacetylpyripyropene A] | 0.01 to 0.1 | +++ (50 > specific activity > 10) | 161.6 | 149.7 | 132.5 | to a greater degree than did pyripyropene A | 
2 | CC(C)C(=O)OCC1(C)C2C[C@H](OC(=O)c3ccc(C#N)cc3)[C@@]3(C)Oc4cc(-c5cccnc5)oc(=O)c4[C@H](O)C3[C@@]2(C)CC[C@@H]1OC(=O)C(C)C (some centres unmarked) [PRD 056, 7-O-p-cyanobenzoyl-1,11-di-(O-isobutyryl)-1,7,11-trideacetylpyripyropene A] | 0.01 to 0.1 | +++ (50 > specific activity > 10) | 148.0 | 114.8 | 86.1 | to a greater degree than did pyripyropene A | 
3 | CC(=O)OCC1(C)C(OC(C)=O)CCC2(C)C1CC(OC(C)=O)C1(C)Oc3cc(-c4cccnc4)oc(=O)c3C(O)C21 (centres unmarked) [Pyripyropene A, reference compound] |  |  |  | 177.3 | 174.0 |  | 
4 | CC(=O)OCC1(C)C2C[C@@H](Cl)[C@@]3(C)Oc4cc(-c5cccnc5)oc(=O)c4[C@H](O)C3[C@@]2(C)CC[C@@H]1OC(C)=O (stereo partly drawn) [PRD 065, 7-(R)-chloro-7-(S)-deacetylpyripyropene A] |  | + (5 > specific activity > 1) |  |  |  |  | 0.1 to 1
5 | COc1ccc(CC(=O)O[C@H]2CC3C(C)(COC(C)=O)[C@@H](OC(C)=O)CC[C@]3(C)C3[C@@H](O)c4c(cc(-c5cccnc5)oc4=O)O[C@@]32C)cc1 (some centres unmarked) [PRD 087, 7-O-4-methoxyphenylacetyl-7-deacetylpyripyropene A] | 0.1 to 1 | + (5 > specific activity > 1) |  |  |  |  | 
6 | CC12COC(c3ccccc3)O[C@H]1CC[C@@]1(C)C2C[C@H](OC(=O)c2ccc(C#N)cc2)[C@@]2(C)Oc3cc(-c4cccnc4)oc(=O)c3[C@H](O)C12 (some centres unmarked) [PRD 041, 1,11-O-benzylidene-7-O-p-cyanobenzoyl-1,7,11-trideacetylpyripyropene A] | 0.01 to 0.1 | + (5 > specific activity > 1) | 102.4 | 88.2 | 101.1 | to a greater degree than did pyripyropene A | 
7 | CC(=O)OCC1(C)C2C[C@H](OC(=O)C3CCCC3)[C@@]3(C)Oc4cc(-c5cccnc5)oc(=O)c4[C@H](O)C3[C@@]2(C)CC[C@@H]1OC(C)=O (some centres unmarked) [PRD 075, 7-O-cyclopentanecarboxyl-7-deacetylpyripyropene A] |  | ++ (10 > specific activity > 5) |  |  |  |  | 0.01 to 0.1
8 | CC(=O)OCC1(C)C2C[C@@H](I)[C@@]3(C)Oc4cc(-c5cccnc5)oc(=O)c4[C@H](O)C3[C@@]2(C)CC[C@@H]1OC(C)=O (stereo partly drawn) [PRD 064, 7-(R)-iodo-7-(S)-deacetylpyripyropene A] | 0.1 to 1 | + (5 > specific activity > 1) |  |  |  |  | 
9 | CC12COC(c3ccccc3)O[C@H]1CC[C@@]1(C)C2C[C@H](OC(=O)c2cccc(Cl)c2)[C@@]2(C)Oc3cc(-c4cccnc4)oc(=O)c3[C@H](O)C12 (some centres unmarked) [PRD 050, 1,11-O-benzylidene-7-O-m-chlorobenzoyl-1,7,11-trideacetylpyripyropene A] | 0.01 to 0.1 | +++ (50 > specific activity > 10) |  |  |  |  | 
10 | CC(=O)OCC1(C)C2C[C@H](OC(=O)c3cccc4ccccc34)[C@@]3(C)Oc4cc(-c5cccnc5)oc(=O)c4[C@H](O)C3[C@@]2(C)CC[C@@H]1OC(C)=O (some centres unmarked) [PRD 038, 7-1-naphthoyl-7-deacetylpyripyropene A] | 0.01 to 0.1 | ++ (10 > specific activity > 5) |  |  |  |  | 
11 | CC(=O)OCC1(C)C2C[C@H](OC(=O)c3ccc([N+](=O)[O-])cc3)[C@@]3(C)Oc4cc(-c5cccnc5)oc(=O)c4[C@H](O)C3[C@@]2(C)CC[C@@H]1OC(C)=O (some centres unmarked) [PRD 029, 7-p-nitrobenzoyl-7-deacetylpyripyropene A] | 0.01 to 0.1 | + (5 > specific activity > 1) |  |  |  |  | 
12 | CC(=O)OCC1(C)C2C[C@H](OC(=O)CCN3CCCCC3)[C@@]3(C)Oc4cc(-c5cccnc5)oc(=O)c4[C@H](O)C3[C@@]2(C)CC[C@@H]1OC(C)=O (some centres unmarked) [PRD 095, 7-O-3-(pyperidin-1-yl)propionyl-7-deacetylpyripyropene A] | 0.1 to 1 | + (5 > specific activity > 1) |  |  |  |  | 
13 | COc1ccc(C(=O)O[C@H]2CC3C(C)(COC(C)=O)[C@@H](OC(C)=O)CC[C@]3(C)C3[C@@H](O)c4c(cc(-c5cccnc5)oc4=O)O[C@@]32C)cc1 (some centres unmarked) [PRD 003, 7-p-methoxybenzoyl-7-deacetylpyripyropene A] | < 0.01 | +++ (50 > specific activity > 10) |  |  |  |  | 

The next lines start with results.

Row | IC50 (ACAT 2; [2]) [µM] | Specific activity: (inhibitory activity of test compound)/(inhibitory activity of pyripyropene A) (ACAT 2) | SMILES | total plasma cholesterol at day 14 (% of day 0) ([1]; 1 mg/kg oral daily) [%] | total plasma cholesterol at day 14 (% of day 0) ([1]; 10 mg/kg oral daily) [%] | total plasma cholesterol at day 14 (% of day 0) ([1]; 50 mg/kg oral daily) [%] | suppression of the increase in total plasma cholesterol compared with pyripyropene A [1] | IC50 (ACAT 2) [µM]
14 | 0.01 to 0.1 | + (5 > specific activity > 1) | CC12COC(c3ccccc3)O[C@H]1CC[C@@]1(C)C2C[C@H](OC(=O)c2ccc(Br)cc2)[C@@]2(C)Oc3cc(-c4cccnc4)oc(=O)c3[C@H](O)C12 (some centres unmarked) [PRD 053, 1,11-O-benzylidene-7-O-p-bromobenzoyl-1,7,11-trideacetylpyripyropene A] |  |  |  |  | 
15 |  | ++++ (100 > specific activity > 50) | CC(=O)OCC1(C)C(OC(C)=O)CCC2(C)C1CC(OC(=O)c1ccc(C)cc1)C1(C)Oc3cc(-c4cccnc4)oc(=O)c3C(O)C21 (centres unmarked) [PRD 009] |  |  |  |  | 
16 | 0.1 to 1 | + (5 > specific activity > 1) | CC(=O)OCC1(C)C2C[C@H](OC(=O)c3ccc(-c4ccccc4)cc3)[C@@]3(C)Oc4cc(-c5cccnc5)oc(=O)c4[C@H](O)C3[C@@]2(C)CC[C@@H]1OC(C)=O (some centres unmarked) [PRD 034, 7-p-biphenyl-4-carboxyl-7-deacetylpyripyropene A] |  |  |  |  | 
17 | 0.01 to 0.1 | +++ (50 > specific activity > 10) | CC(=O)OCC1(C)C2C[C@H](OC(=O)c3ccccc3Cl)[C@@]3(C)Oc4cc(-c5cccnc5)oc(=O)c4[C@H](O)C3[C@@]2(C)CC[C@@H]1OC(C)=O (some centres unmarked) [PRD 010, 7-o-chlorobenzoyl-7-deacetylpyripyropene A] |  |  |  |  | 
18 | 0.01 to 0.1 | +++ (50 > specific activity > 10) | COc1ccccc1C(=O)O[C@H]1CC2C3(C)COC(c4ccccc4)O[C@H]3CC[C@]2(C)C2[C@@H](O)c3c(cc(-c4cccnc4)oc3=O)O[C@@]21C (some centres unmarked) [PRD 042, 1,11-O-benzylidene-7-O-o-methoxybenzoyl-1,7,11-trideacetylpyripyropene A] |  |  |  |  | 
19 |  | ++ (10 > specific activity > 5) | C=Cc1ccc(C(=O)O[C@H]2CC3C(C)(COC(C)=O)[C@@H](OC(C)=O)CC[C@]3(C)C3[C@@H](O)c4c(cc(-c5cccnc5)oc4=O)O[C@@]32C)cc1 (some centres unmarked) [PRD 014, 7-p-vinylbenzoyl-7-deacetylpyripyropene A] |  |  |  |  | 
20 | 0.1 to 1 | + (5 > specific activity > 1) | CC(=O)OCC1(C)C(OC(C)=O)CC[C@@]2(C)C1C[C@H](OC(=O)c1ccc(C(N)=O)cc1)[C@@]1(C)Oc3cc(-c4cccnc4)oc(=O)c3[C@H](O)C21 (some centres unmarked) [PRD 111] |  |  |  |  | 
